{"source": "patent US20110015080A1", "about": "“Solution-based methods for RNA expression profiling” (MASSACHUSETTS INSTITUTE OF TECHNOLOGY, priority 2005, published 2011)", "tested_on": "HL60 (human promyelocytic leukemia) cells", "assay": "LMA-FlexMAP bead-based gene expression signature analysis of total RNA from HL60 cells treated with tretinoin or DMSO (ninety transcripts); as to FlexMap NM 003332 LUA#43: test concentration or dose not given here", "conditions": "replicate columns", "key": {"[1]": {"conditions": "Experiment 2, HL60 cells, Tretinoin-treated"}}, "note": "Values joined by “and” are separate entries in the source; they are usually repeats but may differ in a detail not shown here. Equal values may be shown once."}
{"smiles": "CC1=C(/C=C/C(C)=C/C=C/C(C)=C/C(=O)O)C(C)(C)CCC1", "note": "[tretinoin, all-trans-retinoic acid]", "values": [{"measurement": "FlexMap NM_003132 LUA#68", "setting": "Experiment 2, Tretinoin", "result": "635 and 618 and 721 and 690.5 and 680 and 633 and 648 and 716"}, {"measurement": "FlexMap NM_003172 LUA#19", "setting": "Experiment 2, Tretinoin", "result": "333 (2×) and 312.5 and 370 and 365 and 330 and 352 and 380"}, {"measurement": "FlexMap NM_003332 LUA#43", "setting": "Experiment 2, Tretinoin", "result": "2733 and 2691.5 and 2589.5 and 2832 and 2821 and 2704 and 2692 and 2772"}, {"measurement": "FlexMap NM_003581 LUA#62", "setting": "Experiment 2, Tretinoin", "result": "55 (2×) and 54 and 114 and 78 and 85 and 59.5 and 53"}, {"measurement": "FlexMap NM_003644 LUA#17", "setting": "Experiment 2, Tretinoin", "result": "274 (2×) and 259 and 319 and 269 and 192 and 231 and 300"}, {"measurement": "FlexMap NM_003752 LUA#82", "setting": "Experiment 2, Tretinoin", "result": "139 and 142 and 168 and 149.5 and 150 and 153 and 162 and 164"}, {"measurement": "FlexMap NM_003879 LUA#24", "setting": "Experiment 2, Tretinoin", "result": "95 and 96.5 and 93 and 91.5 and 86 and 84 and 82 and 97"}, {"measurement": "FlexMap NM_004079 LUA#21", "setting": "Experiment 2, Tretinoin", "result": "150 and 147 and 144 and 133 and 133.5 and 142 and 143 and 152"}, {"measurement": "FlexMap NM_004095 LUA#59", "setting": "Experiment 2, Tretinoin", "result": "293 (2×) and 227 and 287 and 286.5 and 270 and 294 and 331"}, {"measurement": "FlexMap NM_004106 LUA#44", "setting": "Experiment 2, Tretinoin", "result": "1697 and 1748 and 1762 and 1756 and 1799 and 1678 and 1587.5 and 1827"}, {"measurement": "FlexMap NM_004134 LUA#76", "setting": "Experiment 2, Tretinoin", "result": "406 and 372 and 423.5 and 417 and 415 (2×) and 383 and 426"}, {"measurement": "FlexMap NM_004152 LUA#31", "setting": "Experiment 2, Tretinoin", "result": "2347 and 1882 and 2313 and 2471.5 and 2477.5 and 2269 and 2335.5 and 2470"}, {"measurement": "FlexMap NM_004526 LUA#88", "setting": "Experiment 2, Tretinoin", "result": "256 and 233 and 244 and 270 and 260 and 240.5 and 243 and 277"}, {"measurement": "FlexMap NM_004602 LUA#32", "setting": "Experiment 2, Tretinoin", "result": "303 and 274 and 320 and 337 and 334 and 363 and 355.5 and 296"}, {"measurement": "FlexMap NM_004723 LUA#20", "setting": "Experiment 2, Tretinoin", "result": "501 and 420 and 472.5 and 498 and 506 and 470 and 487.5 and 538"}, {"measurement": "FlexMap NM_004741 LUA#89", "setting": "Experiment 2, Tretinoin", "result": "402.5 and 370.5 and 329 and 324 and 317 and 325 and 328"}, {"measurement": "FlexMap NM_004759 LUA#37", "setting": "Experiment 2, Tretinoin", "result": "206.5 and 235 and 284 and 179 and 207.5 and 192 and 195 and 201"}, {"measurement": "FlexMap NM_005008 LUA#77", "setting": "Experiment 2, Tretinoin", "result": "452.5 (2×) and 393 and 501 and 482 and 432 and 439.5 and 502.5"}, {"measurement": "FlexMap NM_005375 LUA#86", "setting": "Experiment 2, Tretinoin", "result": "565 and 642 and 552 and 568 and 593 and 585 and 589 and 587"}, {"measurement": "FlexMap NM_005566 LUA#85", "setting": "Experiment 2, Tretinoin", "result": "744 and 745 and 851 and 821 and 830 and 748 and 752 and 776.5"}, {"measurement": "FlexMap NM_005914 LUA#60", "setting": "Experiment 2, Tretinoin", "result": "1161.5 and 1104 and 871 and 1091 and 1131 and 1081.5 and 1125 and 1172.5"}, {"measurement": "FlexMap NM_005915 LUA#72", "setting": "Experiment 2, Tretinoin", "result": "47 (4×) and 43 and 44 and 49 and 54"}, {"measurement": "FlexMap NM_005952 LUA#66", "setting": "Experiment 2, Tretinoin", "result": "243 and 261.5 and 265 and 274 and 260 and 263 and 224 and 268"}, {"measurement": "FlexMap NM_005980 LUA#73", "setting": "Experiment 2, Tretinoin", "result": "202 and 190 and 197 and 212 and 204 and 187 and 188 and 209.5"}, {"measurement": "FlexMap NM_006019 LUA#35", "setting": "Experiment 2, Tretinoin", "result": "907 and 1033 and 1059 and 938.5 and 911.5 and 862 and 871 and 956"}, {"measurement": "FlexMap NM_006138 LUA#56", "setting": "Experiment 2, Tretinoin", "result": "124 and 117 and 115.5 and 111 and 127 and 118 and 119.5 and 120"}, {"measurement": "FlexMap NM_006432 LUA#27", "setting": "Experiment 2, Tretinoin", "result": "1693 and 1842 and 1767 and 1718 and 1798 and 1725 and 1678 and 1814"}, {"measurement": "FlexMap NM_006452 LUA#71", "setting": "Experiment 2, Tretinoin", "result": "86 (2×) and 83.5 and 93 and 90 (2×) and 88 and 96"}, {"measurement": "FlexMap NM_006985 LUA#58", "setting": "Experiment 2, Tretinoin", "result": "56 and 50 (2×) and 55 and 52 and 54 and 60 and 63"}, {"measurement": "FlexMap NM_007282 LUA#16", "setting": "Experiment 2, Tretinoin", "result": "58 and 53 and 61 (2×) and 69 and 64 and 59 and 62"}, {"measurement": "FlexMap NM_014333 LUA#26", "setting": "Experiment 2, Tretinoin", "result": "720 (2×) and 704 and 706 and 712 and 662 and 633.5 and 726.5"}, {"measurement": "FlexMap NM_014366 LUA#61", "setting": "Experiment 2, Tretinoin", "result": "298.5 and 321 and 304.5 and 297 and 291 and 286.5 and 300 and 310.5"}, {"measurement": "FlexMap NM_014573 LUA#70", "setting": "Experiment 2, Tretinoin", "result": "178 and 154 and 187 and 179 and 161.5 and 172 and 157.5 and 198"}, {"measurement": "FlexMap NM_015201 LUA#57", "setting": "Experiment 2, Tretinoin", "result": "241 and 245.5 and 266 and 252 and 243 and 230 and 244 and 268.5"}, {"measurement": "FlexMap NM_018115 LUA#63", "setting": "Experiment 2, Tretinoin", "result": "1238 and 1270 and 1440 and 1028 and 1210 and 935.5 and 1175 and 1004"}, {"measurement": "FlexMap NM_018164 LUA#69", "setting": "Experiment 2, Tretinoin", "result": "198 and 200 and 205.5 and 182 (2×) and 188.5 and 186 and 211"}, {"measurement": "FlexMap NM_018256 LUA#83", "setting": "Experiment 2, Tretinoin", "result": "568 and 635.5 and 455 and 571 and 556 and 643 and 655 and 483.5"}, {"measurement": "FlexMap NM_018890 LUA#33", "setting": "Experiment 2, Tretinoin", "result": "934 and 873 and 1071 and 983 and 992 and 923.5 and 879 and 988"}, {"measurement": "FlexMap NM_019058 LUA#75", "setting": "Experiment 2, Tretinoin", "result": "177.5 and 194 (2×) and 192 and 181.5 and 179 and 176 and 171"}, {"measurement": "FlexMap NM_020117 LUA#78", "setting": "Experiment 2, Tretinoin", "result": "697 and 734 (2×) and 750 and 739 and 606 and 654 and 748"}, {"measurement": "FlexMap NM_021103 LUA#41", "setting": "Experiment 2, Tretinoin", "result": "2724 and 2581.5 and 2331.5 and 2558 and 2559 and 793 and 1990 and 2996.5"}, {"measurement": "FlexMap NM_021203 LUA#80", "setting": "Experiment 2, Tretinoin", "result": "657.5 and 657 and 757.5 and 703 and 701.5 and 650 and 660 and 741"}, {"measurement": "FlexMap NM_021974 LUA#64", "setting": "Experiment 2, Tretinoin", "result": "1286.5 and 1160 and 1272 and 1368.5 and 1315 and 1193.5 and 1269 and 1365"}, {"measurement": "FlexMap NM_024045 LUA#65", "setting": "Experiment 2, Tretinoin", "result": "178 and 149 and 163.5 and 164.5 and 175.5 and 158 and 157 and 182"}, {"measurement": "FlexMap TFRC LUA#92", "setting": "Experiment 2, Tretinoin", "result": "346 and 400.5 and 413 and 375 and 381 and 358 and 345.5 and 382"}, {"measurement": "FlexMap signal, transcript NM_000070 (LUA#2)", "setting": "[1]", "result": "437.5 and 358 and 444 (2×) and 393 (2×) and 419 and 422"}, {"measurement": "FlexMap signal, transcript NM_000153 (LUA#10)", "setting": "[1]", "result": "487 and 484 and 539 and 511 and 505 and 473 and 501 and 542"}, {"measurement": "FlexMap signal, transcript NM_000632 (LUA#12)", "setting": "[1]", "result": "369.5 and 476 and 491.5 and 406 and 400 and 360.5 and 374 and 395"}]}
